We go through five molecules from publication PMC3735429, “Plasmodium falciparum encodes a conserved active inhibitor-2 for Protein Phosphatase type 1: perspectives for novel anti-plasmodial therapy” (BMC Biology, 2013).

The IC50 is the concentration needed to halve the response being measured.

Like-named read-outs stand apart in the source and are kept apart here. No end group written: not given here.

The subject of one data set is 3D7 P. falciparum strain. In words: Growth inhibition assay of P. falciparum 3D7 (SYBR Green I, flow cytometry). The format is cell-based, Plasmodium falciparum. The procedure: (§1) Assays were carried out in 96-well plates with a starting parasitemia of 0.5% at a haematocrit of 1% using SYBR Green I [81]. The peptides were added to the culture at different concentrations ranging from 80 μM to 1.25 μM (final concentrations) in a volume of 250 μl of RPMI-AlbuMAX (0.5%) and incubated for further 72 hr to allow all stages to complete at least one cycle. Cultures were stained for 30 minutes in the dark with SYBR Green I 1X (Invitrogen) diluted in 20 mM Tris pH8.8, 138 mM NaCl, and fixed with 1% paraformaldehyde. Fixed pRBC were stored at 4°C in the dark until flow cytometry analysis.
(§2) Parasite growth was assessed by flow cytometry on a FACSCalibur (Becton-Dickinson). Infected and uninfected erythrocytes were gated on the basis of their forward scatter (FSC) and side scatter (SSC) signals. Fluorescence analysis (Green fluorescence, FL-1 filter) was performed with CellQuest software (FACScan; BD Biosciences) on a total of 100,000 acquired events. Fluorescence was observed as described by Izumiyama et al.[82] on a two-parameters dot plot (FL1-SSC). Fluorescence of non-infected RBC was adjusted to plot between 10^0 and 10^1. Results are expressed in percentage of fluorescence among total RBC.
The drug concentration resulting in 50% inhibition of parasite growth (IC50) was assessed by determining the drug concentration corresponding to 50% of the parasitaemia observed in the peptide-free control wells. The IC50 value was calculated using the ICEstimator software based on a non-linear regression analysis of log-based dose–response curves. Results are presented as means ± sem.
A general note: A flow cytometer gives signals particle by particle.

The next data set has as its system HB3 P. falciparum strain. The data set is described as follows: Growth inhibition assay of P. falciparum HB3 (SYBR Green I, flow cytometry). The format is cell-based, Plasmodium falciparum. Here is the method: as §1
as §2, with “RBC. […]” for “RBC.”

In the next data set the test system is Plasmodium falciparum. To be noted: ref [1]-[3]; cited from earlier work. An excerpt: During its life cycle, Plasmodium falciparum, the deadliest malaria parasite for humans, undergoes several successive rounds of mitosis to amplify parasite populations and consequently to increase the rate of its transmission. Among the essential actors in the growth and division of the parasite are kinases and phosphatases. […] Subsequently, the identification of kinases and phosphatases and their central functions in P. falciparum[4-9] ...

The target of data set [1] is His6-PfPP1 (Plasmodium falciparum).
The subject of a further data set is Xenopus oocytes. The data set is described as follows: Induction of germinal vesicle breakdown (GVBD, G2/M transition) in microinjected Xenopus oocytes. The format is cell-based. The note with it: 100 ng injected; monitored 15 h; sets of 20 oocytes, repeated at least three times. The procedure:
Preparation of Xenopus oocytes and microinjection experiments were performed as previously described. Briefly, in each assay, 20 oocytes removed from at least two or three different animals were microinjected with His6-PfI2 (wild type, deleted or mutated) recombinant proteins or PfI2/PfI3 derived peptides. […] Okadaic acid was used as a positive control for ability of oocytes to respond to PP inhibition (data not shown). Regarding the pre-injection experiments, deleted, mutated His6-PfI2 proteins or PfI2/PfI3 derived peptides were pre-injected (100 ng) in the oocytes 1 hour before the His6-PfI2WT injection (100 ng). GVBD was detected by the appearance of a white spot at the apex of the animal pole after 15 hours. Oocyte extracts were prepared as follow: oocytes were lysed in buffer (50 mM HEPES pH 7.4, 500 mM NaCl, 0.05% SDS, 0.5% Triton X100, 5 mM MgCl2, 1 mg/ml bovine serum albumin, 10 μg/ ml leupeptin, 10 μg/ml aprotinin, 10 μg/ml soybean trypsin inhibitor, 10 μg/ml benzamidine, 1 mM PMSF, 1 mM sodium vanadate) and centrifuged at 4°C for 15 min at 10,000 g. To detect His6-PfI2 proteins in injected extracts, electrophoresis followed by western-blot analysis performed on oocytes extracts. The membranes were developed with anti-His mAb antibody (Qiagen).

Data set [2] has as its system PfPP1. In words: PfPP1 phosphatase activity assay with pNPP substrate. The format is biochemical, Plasmodium falciparum. The note with it: recombinant PfPP1 pre-incubated 30 min at 37°C with different concentrations of protein before pNPP; maximal effect; means of four independent experiments in duplicate. Here is the method: The activity of PfPP1 with p-nitro-phenylphosphate (pNPP) was assayed as previously described. To investigate the role of PfI2 recombinant proteins or PfI2/PfI3 derived peptides on His6-PfPP1 activity, different amounts of proteins were added to 1 μg of PfPP1 recombinant protein and preincubated for 30 min at 37°C before testing the PfPP1 phosphatase activity. Okadaic acid was used as control (data not show). Results are presented as mean of increase or decrease of phosphatase activity in comparison to His6-PfPP1 incubated in the reaction buffer.

Data set [3] concerns PfPP1. In words: Yeast two-hybrid PfI2-PfPP1 interaction. The format is binding, Plasmodium falciparum. The note with it: SD medium lacking leucine, tryptophan, histidine and adenine; 4 days. The source says: The full length PfPP1 was cloned into the pGBKT7 vector containing the DNA binding domain of gal4 (Gal4-BD) and wild-type, deleted or mutated PfI2 (PfI2WT, PfI2(1–94), PfI2(19–144), PfI2W16A, PfI2Y103A) into pGADT7 containing the gal4 activation domain (Gal4-AD). The pGBKT7-Gal4-BD-PfPP1 construct was used to transform Y187 strain and maintained on SD media without tryptophan (SD-W). The pGADT7-Gal4-AD-PfI2 constructs were used to transform AH 109 strain and maintained on SD media lacking leucine (SD-L). Mating these two haploid strains results in the formation of diploid strain, which is viable on SD media lacking leucine and tryptophan (SD-LW). Interaction of PfPP1 with the different versions of PfI2 proteins were evaluated by their capacity to grow on selective media: SD medium lacking leucine, tryptophan and histidine (SD-LWH) and SD medium lacking leucine, tryptophan, histidine and adenine (SD-LWHA) for 4 days. Yeasts transformed with empty vector or with pGBKT7 laminine were used as controls.

Regarding VKKKKIKREIKIKKTISWKKTISW [P1], the IC50 in the data set with 3D7 P. falciparum strain (3D7 strain, 72 h) turned out to be 23.8 µM; in the data set on HB3 P. falciparum strain (HB3 strain, 72 h), 15 µM.

For VKKKKIKREIKIKVVRWKVVRW [P5], the half-maximal inhibitory concentration (IC50) in the data set on 3D7 P. falciparum strain (72 hr, 7 independent experiments, 3 batches of peptide, means ± sem, read-out: 3D7 IC50) was found to be 9.72 µM; in the data set on HB3 P. falciparum strain (72 hr, 2 different batches, means ± sem, read-out: HB3 IC50), 8.79 µM. Further, the parasite growth inhibition entry in the data set with 3D7 P. falciparum strain (at 80 μM, 72 hr, blood stage 3D7, means of seven independent experiments in duplicate) was “up to 90%”.

With `C=C1[C@@H](O)[C@@H]2O[C@]3(CC[C@H](/C=C/[C@@H](C)[C@@H]4CC(C)=C[C@@]5(O[C@H](C[C@@](C)(O)C(=O)O)CC[C@H]5O)O4)O3)CC[C@H]2O[C@@H]1[C@@H](O)C[C@H](C)[C@H]1O[C@@]2(CCCCO2)CC[C@H]1C` [okadaic acid], the “inhibition of parasite growth in vitro” value with Plasmodium falciparum is “drastically inhibited parasite growth in vitro”.

B1: His6-PfI2WT (natural protein)
chain: MKKKVDKSVTKKTISWDEVTINEQDKERGSRMKILEPNTPFNFILMDSASEDEASKYGDVKGSDEGQNNIADDLINKLNQLVEKQENKGVSNIDFKEKRKKHYNEYKMLQKLRKSGTLDDIDEEYKPDNKDSNCDNSNMNESEE
Consider B1, for which the phosphatase activity of recombinant PfPP1 on pNPP after pre-incubation for 30 min at 37°C with different concentrations of PfI2WT; inhibition in data set [1] was 80%.

B2: PfI2WT: wild-type recombinant His-tagged P. falciparum inhibitor-2, 144 amino acids (protein)
chain: B1 chain
modifications: left off: His6, end not stated, kept
Take B2: the GVBD induced in the data set with Xenopus oocytes was ~ 85%. The “decrease in PfPP1 phosphatase activity” value in the data set with PfPP1 [2] is given as “up to 80%”. For the same molecule, in the data set on PfPP1 [3], the “growth of diploid yeast with PfPP1 on SD-LWHA (stringent conditions)” value is listed as “still able to grow”.
